Assay results from US9827229B2, “Small molecule securinine and norsecurinine analogs and their use in cancers, inflammatory diseases and infections” (INVENIO THERAPEUTICS INC., priority 2013, dated 2017).
Where two headings read alike, the source gives them in different places.

How the values were obtained:
mice = experiment: Seizures in mice; type: in vivo; conditions: due to GABA receptor binding
Description: The present invention provides for methods of treating a condition as described herein with less adverse additional effects. As is known in the art, securinine antagonizes the GABAA receptor.

HL60 cells [1] = experiment: Differentiation of HL60 cells (Dif50); type: cell-based, human; conditions: for EC50: Homo sapiens
Description: The tested compounds and their respective results are produced in Table 1. Those skilled in the art will appreciate that combining the securinine and/or norsecurinine analogs with other differentiation inducing agents, such as all-trans retinoic acid, cytarabine and/or an anthracycline, would be of further benefit. Those skilled in the art will appreciate that inducing differentiation may further reduce oxidative damage due to lower presence of radical inducing enzymes (see, e.g., Yamada et al. J Biol Chem 259(5)3021-3025 (1984) and Weil et al., PNAS 84:2057-2061 (1987)).
(§1) The analogs were then tested and evaluated on the ability to affect differentiation and growth of HL60 cells.

HL60 cells [2] = experiment: Growth of HL60 cells (IC50); type: cell-based, human; design: HL-60, Dif50/IC50 column: second value of 'x/y at 1.25 uM' (growth): unit not given here; conditions: for IC50: growth, read-out: HL-60, IC50
Experimental: as §1

OCI = experiment: Growth inhibition of AML cell line OCI; type: cell-based, human
Description: (§2) The analogs were then further tested for inhibiting growth against various cancer cell lines: AML (Mol3, OCI), Colon cancer (HCT116) and Ovary cancer (SKOV3). IC50 are documented in Table 2.

HCT116 P53−/− = experiment: Growth inhibition of colon cancer HCT116 P53−/−; type: cell-based
Description: as §2

SKOV3 P53+/+ = experiment: Growth inhibition of ovary cancer SKOV3 P53+/+; type: cell-based
Description: as §2

MOL3 = experiment: Growth inhibition of AML cell line MOL3; type: cell-based, human
Description: as §2

SKOV3 P53−/− = experiment: Growth inhibition of ovary cancer SKOV3 P53−/−; type: cell-based
Description: as §2

HCT116 P53+/+ = experiment: Growth inhibition of colon cancer HCT116 P53+/+; type: cell-based
Description: as §2

[3] = Homo sapiens, HCT-116, colon cancer HCT116 P53−/−
[4] = Homo sapiens, SK-OV-3, ovary cancer SKOV3 P53+/+
[5] = Homo sapiens, SK-OV-3, ovary cancer SKOV3 P53−/−
[6] = Homo sapiens, HCT-116, colon cancer HCT116 P53+/+
[7] = HL-60, HL-60 cells, differentiation, no unit in head or cell (other cells of the column print uM), read-out: HL-60, Dif50

Compound	IC50 (HCT116 P53−/−; [3]) [nM]	IC50 (SKOV3 P53+/+; [4]) [nM]	IC50 (SKOV3 P53−/−; [5]) [nM]	IC50 (HCT116 P53+/+; [6]) [nM]	EC50 (HL60 cells [1]; [7]) [µM]	other results
O=C1C=C2C=C[C@@H]3C[C@@]2(O1)[C@H]1CCCCN31 [Securinine]						seizures in mice (mice): causes seizures
N#CCCCC#C/C(=C\C1=C[C@@H]2C[C@@]3(OC(=O)C=C13)[C@H]1CCCCN21)CCCC#N [INVS-MG-125-IIB]						HL-60, Dif50/IC50 column: first value of 'x/y at 10 uM' (differentiation) (HL60 cells [1]; HL-60 cells): 40; HL-60, Dif50/IC50 column: second value of 'x/y at 10 uM' (growth) (HL60 cells [2]; HL-60 cells): 35
COc1ccc(C#CC2=C[C@@H]3C[C@@]4(OC(=O)C=C24)[C@H]2CCCCN32)cc1 [INVS-MG-134C]	1100	1200	2800	1000		IC50 (OCI; Homo sapiens): 80 nM; IC50 (MOL3; Homo sapiens): 60 nM
CN(C)c1ccc(C#CC2=C[C@@H]3C[C@@]4(OC(=O)C=C24)[C@H]2CCCCN32)cc1 [INVS-MG-146B]	1800	700	800	800		
CCN(CC)CC#CC1=C[C@@H]2C[C@@]3(OC(=O)C=C13)[C@H]1CCCCN21 [INVS-MG-145A]	2100	800	1200	1100		
O=C1C=C2C(C#Cc3ccsc3)=C[C@@H]3C[C@@]2(O1)[C@H]1CCCCN31 [INVS-MG-136-III]						IC50 (OCI): 115 nM; IC50 (HCT116 P53−/−; colon cancer HCT116 P53−/−): 2200 nM; IC50 (SKOV3 P53+/+; ovary cancer SKOV3 P53+/+): 700 nM; IC50 (HL60 cells [2]; HL-60 cells, no unit in head or cell (other cells of the column print uM)): < 0.07 µM; IC50 (MOL3): 100 nM; IC50 (SKOV3 P53−/−; ovary cancer SKOV3 P53−/−): 1100 nM; IC50 (HCT116 P53+/+; colon cancer HCT116 P53+/+): 1800 nM
C=C(C)CC#CC1=C[C@@H]2C[C@@]3(OC(=O)C=C13)[C@H]1CCCCN21 [INVS-MG-132A]	2200	2400	3800	2400		IC50 (OCI; Homo sapiens): 200 nM
CCCN(CC#CC1=C[C@@H]2C[C@@]3(OC(=O)C=C13)[C@H]1CCCCN21)CCC [INVS-MG-152A]	1900	< 600	700	900		IC50 (OCI; Homo sapiens): 70 nM; IC50 (MOL3; Homo sapiens): 80 nM
CN(C)CC#CC1=C[C@@H]2C[C@@]3(OC(=O)C=C13)[C@H]1CCCCN21 [INVS-MG-111B]	1500	1800	2800	1100		IC50 (OCI; Homo sapiens): 90 nM; IC50 (MOL3; Homo sapiens): 70 nM
O=C1C=C2C(C#Cc3cc4ccccc4c4ccccc34)=C[C@@H]3C[C@@]2(O1)[C@H]1CCCCN31 [INVS-MG-158B]	2300	1200	3100	1200		
O=C1C=C2C(C#Cc3ccc(OC(F)(F)F)cc3)=C[C@@H]3C[C@@]2(O1)[C@H]1CCCCN31 [INVS-MG-166B]	3800	3500	3200	2400		IC50 (OCI; Homo sapiens): > 300 nM; IC50 (MOL3; Homo sapiens): > 300 nM
COc1ccc2cc(C#CC3=C[C@@H]4C[C@@]5(OC(=O)C=C35)[C@H]3CCCCN43)ccc2c1 [INVS-MG-157B]	900	< 600	700	700		IC50 (HL60 cells [2]; Homo sapiens, HL-60, HL-60 cells, no unit in head or cell (other cells of the column print uM)): 0.07 to 0.156 µM; IC50 (MOL3; Homo sapiens): 90 nM
N#CCCCC#CC1=C[C@@H]2C[C@@]3(OC(=O)C=C13)[C@H]1CCCCN21 [INVS-MG-125A]	2000	1300	2400	1300		
CCOC#CC1=C[C@@H]2C[C@@]3(OC(=O)C=C13)[C@H]1CCCCN21 [INVS-MG-120A]	2100	1900	2600	1600		
O=C1C=C2CC(SC3CCCCC3)[C@@H]3C[C@@]2(O1)[C@H]1CCCCN31 (stereo partly drawn) [INVS-MG-3B]					15 to 20	
CCCNC1CC2=CC(=O)O[C@@]23C[C@@H]1N1CCCC[C@@H]13 (stereo partly drawn) [INVS-MG-44]					15 to 20	
COc1ccc(SC2CC3=CC(O)O[C@@]34C[C@@H]2N2CCCC[C@@H]24)cc1 (stereo partly drawn) [Sec-9]					20 to 30	
C=CCOCC#CC1=C[C@@H]2C[C@@]3(OC(=O)C=C13)[C@H]1CCCCN21 [INVS-MG-159A]						HL-60, Dif50/IC50 column: first value of 'x/y at 10 uM' (differentiation) (HL60 cells [1]; HL-60 cells): 20/20 at 10 uM; HL-60, Dif50/IC50 column: second value of 'x/y at 10 uM' (growth) (HL60 cells [2]; HL-60 cells): 20/20 at 10 uM
O=C1C=C2C[C@@H](SCC(F)(F)F)[C@@H]3C[C@@]2(O1)[C@H]1CCCCN31 [INVS-MG-5C]					20 to 30	
CO[C@H]1CC2=CC(=O)O[C@@]23C[C@@H]1N1CCCC[C@@H]13 [INVS-MG-97-IIB]						EC50 (HL60 cells [1]; HL-60, read-out: HL-60, Dif50, HL-60 cells, differentiation, no unit in head or cell (other cells of the column print uM)): > 30 µM

Compound	IC50 (HCT116 P53−/−; [3]) [nM]	IC50 (SKOV3 P53+/+; [4]) [nM]	IC50 (SKOV3 P53−/−; [5]) [nM]	IC50 (HCT116 P53+/+; [6]) [nM]	EC50 (HL60 cells [1]; [7]) [µM]	other results
CC(C)CS[C@@H]1CC2=CC(=O)O[C@@]23C[C@@H]1N1CCCC[C@@H]13 (stereo in doubt) [INVS-MG-57A]					20 to 30	
O=C1C=C2C(c3cn(Cc4ccccc4)nn3)=C[C@@H]3C[C@@]2(O1)[C@H]1CCCCN31 [INVS-MG-209A]						EC50 (HL60 cells [1]; HL-60, HL-60 cells, differentiation, read-out: HL-60, Dif50): < 10 µM; IC50 (HL60 cells [2]; Homo sapiens, HL-60, HL-60 cells): < 10 µM
O=C1C=C2[C@@H]3C=CC[C@@]2(O1)[C@H]1CCCCN1O3 [INVS-MG-74A]					> 30	
OC1CC2CC[C@@H]3C[C@@]2(O1)[C@H]1CCCCN31 (stereo partly drawn) [Sec-16]					20 to 30	
OC1C=C2CC(SC3CCCC3)[C@@H]3C[C@@]2(O1)[C@H]1CCCCN31 (stereo partly drawn) [Sec-6]					15 to 20	
CSC1CC2=CC(O)O[C@@]23C[C@@H]1N1CCCC[C@@H]13 (stereo partly drawn) [Sec-8]					10 to 15	
CC1CC2=CC(=O)O[C@@]23C[C@@H]1N1CCCC[C@@H]13 (stereo partly drawn) [Sec-18 & Sec-20]					20 to 30	
O=C1C=C2C(C#CC3C=CCCC3)=C[C@@H]3C[C@@]2(O1)[C@H]1CCCCN31 (stereo partly drawn) [INVS-MG-160B]						HL-60, Dif50/IC50 column: first value of 'x/y at 1.25 uM' (differentiation) (HL60 cells [1]; HL-60 cells, at 1.25 uM): 50; HL-60, Dif50/IC50 column: second value of 'x/y at 1.25 uM' (growth) (HL60 cells [2]; HL-60 cells, at 1.25 uM): 40
O=C1C=C2CC(SCCSC3CC4=CC(=O)O[C@]45C[C@H]3N3CCCC[C@H]35)[C@@H]3C[C@@]2(O1)[C@H]1CCCCN31 (stereo partly drawn) [INVS-MG-7C]					10 to 15	
N#Cc1ccc(C#CC2=C[C@@H]3C[C@@]4(OC(=O)C=C24)[C@H]2CCCCN32)cc1 [INVS-MG-164B]	6400	6800	4200	5200		
O=C1C=C2C[C@H](SCC(F)(F)F)[C@@H]3C[C@@]2(O1)[C@H]1CCCCN31 [INVS-MG-5B]					> 30	
Oc1ccccc1CSC1CC2=CC(O)O[C@@]23C[C@@H]1N1CCCC[C@@H]13 (stereo partly drawn) [Sec-4]					15 to 20	
O=C1C=C2C(C#Cc3ccccc3)=C[C@@H]3C[C@@]2(O1)[C@H]1CCCCN31 [INVS-MG-110B]	2300	2100	3000	1900		IC50 (OCI; Homo sapiens): 80 nM; IC50 (MOL3; Homo sapiens): 70 nM
O=C1C=C2C(I)=C[C@@H]3C[C@@]2(O1)[C@H]1CCCCN31 [INVS-MG-82-II]	1100	1600	3100	1400		IC50 (OCI; Homo sapiens): 100 nM; IC50 (MOL3; Homo sapiens): 90 nM
O=C1C=C2C(C#Cc3ccsc3)=C[C@@H]3C[C@@]2(O1)[C@H]1CCCCN31 [INVS-MG-136B]	2100			2200		IC50 (SKOV3 P53+/+; ovary cancer SKOV3 P53+/+): 2800 nM; IC50 (MOL3; Homo sapiens): 60 nM; IC50 (SKOV3 P53−/−; ovary cancer SKOV3 P53−/−): 2900 nM
CC(C)CS[C@H]1CC2=CC(=O)O[C@@]23C[C@@H]1N1CCCC[C@@H]13 (stereo in doubt) [INVS-MG-55B & 57B = 37B]					15 to 20	
O=C1C=C2CC([S+]([O-])c3ccccc3)[C@@H]3C[C@@]2(O1)[C@H]1CCCCN31 (stereo partly drawn) [Sec-21]					20 to 30	
COc1cccc(C#CC2=C[C@@H]3C[C@@]4(OC(=O)C=C24)[C@H]2CCCCN32)c1 [INVS-MG-165B]	4200	3600	3500	3200		
C#CC1=C[C@@H]2C[C@@]3(OC(=O)C=C13)[C@H]1CCCCN21 [INVS-MG-207-II]					> 0.07	
O=C1C=C2C(c3ccccc3)=C[C@@H]3C[C@@]2(O1)[C@H]1CCCCN31 [INVG-28-1 = INVS-MG-56B]					> 30	
